Target: recombinant Mcl-1 (residues 172-327) (Homo sapiens (Human), UniProt Q07820)
Assay: Bak peptide fluorescence polarization anisotropy competition assay, Mcl-1
Format: binding
Settings: Table 2, Ki range; FITC-Bak peptide 10 nM, Mcl-1 14 nM; read-out: Ki for inhibition of Mcl-1

Sequence of recombinant Mcl-1 (residues 172-327) (Q07820 172-327): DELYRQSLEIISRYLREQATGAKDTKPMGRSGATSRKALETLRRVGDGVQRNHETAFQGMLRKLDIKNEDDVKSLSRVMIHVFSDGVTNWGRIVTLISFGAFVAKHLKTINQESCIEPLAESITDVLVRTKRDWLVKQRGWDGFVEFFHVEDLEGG

| Ki [nM] | SMILES |
| --- | --- |
| ≤ 100 | Cc1cc(OCCCc2c(C(=O)NS(C)(=O)=O)[nH]c3cccc(Br)c23)cc(C)c1Cl [Example 113, 4-bromo-3-(3-(4-chloro-3,5-dimethylphenoxy)propyl)-N-(methylsulfonyl)-1H-indole-2-carboxamide] |
| ≤ 100 | Cc1cc(OCCCc2c(C(=O)NS(=O)(=O)c3ccc(CO)o3)[nH]c3cc(Cl)ccc23)cc(C)c1Cl [Example 260, -chloro-3-(3-(4-chloro-3,5-dimethylphenoxy)propyl)-N-((5-(hydroxymethyl)furan-2-yl)sulfonyl)-1H-indole-2-carboxamide] |
| ≤ 100 | Cc1cc(OCCCc2c(C(=O)NS(C)(=O)=O)[nH]c3cccc(Cl)c23)cc(C)c1Cl [Example 51, 4-chloro-3-(3-(4-chloro-3,5-dimethylphenoxy)propyl)-N-(methylsulfonyl)-1H-indole-2-carboxamide] |
| ≤ 100 | Cc1cc(OCCCc2c(C(=O)NS(=O)(=O)c3ccccc3)[nH]c3c(-c4cnn(C)c4)cccc23)cc(C)c1Cl [Example 123, 3-(3-(4-chloro-3,5-dimethylphenoxy)propyl)-7-(1-methyl-1H-pyrazol-4-yl)-N-(phenylsulfonyl)-1H-indole-2-carboxamide] |

Same assay, conditions: read-out: Ki for inhibition of Mcl-1

| SMILES | Ki [nM] |
| --- | --- |
| CS(=O)(=O)NC(=O)c1[nH]c2ccccc2c1CCCOc1ccc(Cl)c2ccccc12 [Example 39, 3-(3-((4-chloronaphthalen-1-yl)oxy)propyl)-N-(methylsulfonyl)-1H-indole-2-carboxamide] | 501 to 999 |
| Cc1cc(OCCCc2c(C(=O)NS(=O)(=O)C3CC3)sc3ccccc23)cc(C)c1Cl [Example 69, 3-(3-(4-chloro-3,5-dimethylphenoxy)propyl)-N-(cyclopropylsulfonyl)benzo[b]thiophene-2-carboxamide] | 1000 to 9990 |
| Cc1cc(OCCCc2c(C(=O)NS(=O)(=O)CCCNC3CCCCC3)[nH]c3ccccc23)cc(C)c1Cl [Example 145, 3-(3-(4-chloro-3,5-dimethylphenoxy)propyl)-N-((3-(cyclohexylamino)propyl)sulfonyl)-1H-indole-2-carboxamide] | 1000 to 9990 |
| CS(=O)(=O)NC(=O)c1[nH]c2ccccc2c1CCCOc1cccc(C(F)(F)F)c1 [Example 32, N-(methylsulfonyl)-3-(3-(3-(trifluoromethyl)phenoxy)propyl)-1H-indole-2-carboxamide] | 1000 to 9990 |
| Cc1cc(OCCCc2c(C(=O)NS(C)(=O)=O)n(Cc3cccnc3)c3cc(Cl)ccc23)cc(C)c1Cl [Example 271, 6-chloro-3-(3-(4-chloro-3,5-dimethylphenoxy)propyl)-N-(methylsulfonyl)-1-(pyridin-3-ylmethyl)-1H-indole-2-carboxamide] | 301 to 500 |
| COc1ccc(Oc2cccc(S(=O)(=O)NC(=O)c3[nH]c4ccccc4c3CCCOc3cc(C)c(Cl)c(C)c3)c2)cc1 [Example 142, 3-(3-(4-chloro-3,5-dimethylphenoxy)propyl)-N-((3-(4-methoxyphenoxy)phenyl)sulfonyl)-1H-indole-2-carboxamide] | 301 to 500 |
| Cc1cc(OCCCc2c(C(=O)NS(C)(=O)=O)[nH]c3c(Br)cccc23)cc(C)c1Cl [Example 83, 7-bromo-3-(3-(4-chloro-3,5-dimethylphenoxy)propyl)-N-(methylsulfonyl)-1H-indole-2-carboxamide] | 301 to 500 |
| CS(=O)(=O)NC(=O)c1sc2ccccc2c1CCCOc1cccc2ccccc12 [Example 61, N-(methylsulfonyl)-3-(3-(naphthalen-1-yloxy)propyl)benzo[b]thiophene-2-carboxamide] | 1000 to 9990 |
| CS(=O)(=O)NC(=O)c1[nH]c2ccccc2c1CCCOc1ccc2ccccc2c1 [Example 37, N-(methylsulfonyl)-3-(3-(naphthalen-2-yloxy)propyl)-1H-indole-2-carboxamide] | 1000 to 9990 |
| Cc1cc(OCCCc2c(C(=O)NS(=O)(=O)CCN(C/C=C/c3ccccc3)C/C=C/c3ccccc3)[nH]c3ccccc23)cc(C)c1Cl [Example 203, 3-(3-(4-chloro-3,5-dimethylphenoxy)propyl)-N-((2-(dicinnamylamino)ethyl)sulfonyl)-1H-indole-2-carboxamide] | 301 to 500 |
| COc1ccc(OCCCc2c(C(=O)NS(C)(=O)=O)[nH]c3cc(Cl)ccc23)cc1 [Example 109, 6-chloro-3-(3-(4-methoxyphenoxy)propyl)-N-(methylsulfonyl)-1H-indole-2-carboxamide] | 10000 to 50000 |
| Cc1cc(OCCCc2c(C(=O)NS(=O)(=O)CCNC(=O)c3ccno3)[nH]c3ccccc23)cc(C)c1Cl [Example 154, N-(2-(N-(3-(3-(4-chloro-3,5-dimethylphenoxy)propyl)-1H-indole-2-carbonyl)sulfamoyl)ethyl)isoxazole-5-carboxamide] | 501 to 999 |
| O=C(NS(=O)(=O)C1CC1)c1sc2ccccc2c1CCCOc1cccc2ccccc12 [Example 67, N-(cyclopropylsulfonyl)-3-(3-(naphthalen-1-yloxy)propyl)benzo[b]thiophene-2-carboxamide] | 1000 to 9990 |
| Cc1cc(OCCCc2c(C(=O)NS(=O)(=O)C3CCN(C(=O)c4cc(-c5ccccc5O)n[nH]4)CC3)[nH]c3cc(Cl)ccc23)cc(C)c1Cl [Example 214] | 301 to 500 |

The remaining lines, values ahead:

| Ki [nM] | SMILES |
| --- | --- |
| 101 to 299 | Cc1cccc(S(=O)(=O)NC(=O)c2[nH]c3cc(Cl)ccc3c2CCCOc2cc(C)c(Cl)c(C)c2)c1 [Example 217, 6-chloro-3-(3-(4-chloro-3,5-dimethylphenoxy)propyl)-N-(m-tolylsulfonyl)-1H-indole-2-carboxamide] |
| 301 to 500 | Cc1cc(OCCCc2c(C(=O)NS(=O)(=O)c3ccc(Oc4ccc(Cl)c(Cl)c4)cc3)[nH]c3cc(Cl)ccc23)cc(C)c1Cl [Example 221, 6-chloro-3-(3-(4-chloro-3,5-dimethylphenoxy)propyl)-N-((4-(3,4-dichlorophenoxy)phenyl)sulfonyl)-1H-indole-2-carboxamide] |
| 301 to 500 | Cc1cc(OCCCc2c(C(=O)NS(C)(=O)=O)[nH]c3cc(C(F)(F)F)ccc23)cc(C)c1Cl [Example 78, 3-(3-(4-chloro-3,5-dimethylphenoxy)propyl)-N-(methylsulfonyl)-6-(trifluoromethyl)-1H-indole-2-carboxamide] |
| 101 to 299 | Cc1cc(OCCCc2c(C(=O)NS(=O)(=O)CCNC(=O)Cc3cn(C)c4ccccc34)[nH]c3cc(Cl)ccc23)cc(C)c1Cl [Example 235, 6-chloro-3-(3-(4-chloro-3,5-dimethylphenoxy)propyl)-N-((2-(2-(1-methyl-1H-indol-3-yl)acetamido)ethyl)sulfonyl)-1H-indole-2-carboxamide] |
| 101 to 299 | Cc1cc(OCCCc2c(C(=O)NS(=O)(=O)c3ccc(C(=O)NC4CCOCC4)o3)[nH]c3cc(Cl)ccc23)cc(C)c1Cl [Example 263, 6-chloro-3-(3-(4-chloro-3,5-dimethylphenoxy)propyl)-N-((5-((tetrahydro-2H-pyran-4-yl)carbamoyl)furan-2-yl)sulfonyl)-1H-indole-2-carboxamide] |
| 101 to 299 | Cc1cc(OCCCc2c(C(=O)NS(=O)(=O)c3ccccc3)[nH]c3c(-c4ccoc4)cccc23)cc(C)c1Cl [Example 87, 3-(3-(4-chloro-3,5-dimethylphenoxy)propyl)-7-(furan-3-yl)-N-(phenylsulfonyl)-1H-indole-2-carboxamide] |
| 101 to 299 | Cc1cc(OCCCc2c(C(=O)NS(=O)(=O)CCNC(=O)/C=C/c3ccccc3)[nH]c3ccccc23)cc(C)c1Cl [Example 163, (E)-3-(3-(4-chloro-3,5-dimethylphenoxy)propyl)-N-((2-cinnamamidoethyl)sulfonyl)-1H-indole-2-carboxamide] |
| 101 to 299 | Cc1cc(OCCCc2c(C(=O)NS(=O)(=O)CCNC(=O)C34CC5CC(CC(C5)C3)C4)[nH]c3ccccc23)cc(C)c1Cl [Example 180, N-((2-((3r,5r,7r)-adamantane-1-carboxamido)ethyl)sulfonyl)-3-(3-(4-chloro-3,5-dimethylphenoxy)propyl)-1H-indole-2-carboxamide] |
| 101 to 299 | Cc1cc(OCCCc2c(C(=O)NS(=O)(=O)CCNC(=O)c3cccn3Cc3ccc(F)cc3)[nH]c3cc(Cl)ccc23)cc(C)c1Cl [Example 242, 6-chloro-3-(3-(4-chloro-3,5-dimethylphenoxy)propyl)-N-((2-(1-(4-fluorobenzyl)-1H-pyrrole-2-carboxamido)ethyl)sulfonyl)-1H-indole-2-carboxamide] |
| 101 to 299 | COc1cccc(Cn2cccc2C(=O)NCCS(=O)(=O)NC(=O)c2[nH]c3cc(Cl)ccc3c2CCCOc2cc(C)c(Cl)c(C)c2)c1 [Example 247, 6-chloro-3-(3-(4-chloro-3,5-dimethylphenoxy)propyl)-N-((2-(1-(3-methoxybenzyl)-1H-pyrrole-2-carboxamido)ethyl)sulfonyl)-1H-indole-2-carboxamide] |
| 101 to 299 | Cc1cc(OCCCc2c(C(=O)NS(C)(=O)=O)[nH]c3cccc(C(F)(F)F)c23)ccc1Cl [Example 80, 3-(3-(4-chloro-3-methylphenoxy)propyl)-N-(methylsulfonyl)-4-(trifluoromethyl)-1H-indole-2-carboxamide] |
| 101 to 299 | Cc1cc(OCCCc2c(C(=O)NS(=O)(=O)C3CC3)[nH]c3cc(Cl)ccc23)cc(C)c1Cl [Example 65, 6-chloro-3-(3-(4-chloro-3,5-dimethylphenoxy)propyl)-N-(cyclopropylsulfonyl)-1H-indole-2-carboxamide] |
| 101 to 299 | Cc1cc(OCCCc2c(C(=O)NS(=O)(=O)C3CCN(C(=O)CCc4ccccc4)CC3)[nH]c3cc(Cl)ccc23)cc(C)c1Cl [Example 310, 6-chloro-3-(3-(4-chloro-3,5-dimethylphenoxy)propyl)-N-((1-(3-phenylpropanoyl)piperidin-4-yl)sulfonyl)-1H-indole-2-carboxamide] |
| 101 to 299 | Cc1cc(OCCCc2c(C(=O)NS(=O)(=O)c3ccc(Oc4ccccc4)cc3)[nH]c3cc(Cl)ccc23)cc(C)c1Cl [Example 222, 6-chloro-3-(3-(4-chloro-3,5-dimethylphenoxy)propyl)-N-((4-phenoxyphenyl)sulfonyl)-1H-indole-2-carboxamide] |
| 101 to 299 | Cc1cc(OCCCc2c(C(=O)NS(=O)(=O)c3ccccc3)[nH]c3c(-c4ccsc4)cccc23)cc(C)c1Cl [Example 96, 3-(3-(4-chloro-3,5-dimethylphenoxy)propyl)-N-(phenylsulfonyl)-7-(thiophen-3-yl)-1H-indole-2-carboxamide] |

From patent publication US10844032B2, “Substituted benzofuran, benzothiophene and indole Mcl-1 inhibitors” (Vanderbilt University, priority 2012, dated 2020)
